Experiments:
[1] = Stability of crystalline vs amorphous compound by change of XRD diffraction pattern (with moisture content); assay type: physicochemical; settings: for Change of XRD diffraction pattern with respect to time (in words): X-ray diffraction analysis
Procedure: For comparing the stability of the crystalline compound of Example 1 according to the present invention and the amorphous compound of Comparative Example 2, the following experiment was performed.
The stability of each of the crystalline compound of Example 1 according to the present invention and the amorphous compound of Comparative Example 2 was measured by measuring the change of a diffraction pattern through X-ray diffraction analysis (XRD).
For the amorphous compound of Comparative Example 2, accurate and specific XRD pattern of the amorphous type was not shown, however amorphous 10-ethoxy-8-(morpholinomethyl)-1,2,3,4-tetrahydrobenzo[h][1,6]naphthyridine-5(6H)-on dichloride obtained after freeze drying absorbs surrounding moisture during performing the XRD, thereby increasing the crystallinity and showing XRD peaks.
Meanwhile, the moisture content of the compound of Comparative Example 2 was 0.4% immediately after drying, and was increased to 5.2% after measuring XRD.

[2] = Stability: moisture content with respect to time in thermo-hygrostat (Karl Fisher); assay type: physicochemical; settings: 25° C. and 60% RH, opened Petri dish
Procedure: To compare the stability of 10-ethoxy-8-(morpholinomethyl)-1,2,3,4-tetrahydrobenzo[h][1,6]naphthyridine-5(6H)-on dichloride dihydrate prepared in Example 1 and 10-ethoxy-8-(morpholinomethyl)-1,2,3,4-tetrahydrobenzo[h][1,6]naphthyridine-5(6H)-on dichloride anhydride prepared in Comparative Example 1, the following experiment was performed.
3.0 g of each of the compounds was put in a Petri dish, and the Petri dish was left in a thermo-hygrostat maintaining 25° C. and 60% RH with an opened state. The moisture content with respect to time was measured using a Karl Fisher apparatus and recorded. By measuring the change of the moisture content with respect to time under the above-described conditions, the stability of the dihydrate and that of the anhydride were compared. The results are illustrated in the following Table 1 and FIG. 1.

SMILES	Change of XRD diffraction pattern with respect to time (in words) [1]	Change of the moisture content with respect to time (in words) ([2]; dihydrate)	Moisture content ([2]; 30 min, dihydrate)	Moisture content ([2]; 1 h, dihydrate)	Moisture content ([2]; 2 h, dihydrate)	Moisture content ([2]; 1 day, dihydrate)	Moisture content ([2]; 2 days, dihydrate)	Moisture content ([2]; initial state, dihydrate)	Moisture content ([1]; after measuring XRD)	Moisture content ([1]; immediately after drying)	Change of the moisture content with respect to time (in words) [2]	Moisture content ([2]; 30 min)	Moisture content ([2]; 1 h)	Moisture content ([2]; 2 h)	Moisture content ([2]; 1 day)	Moisture content ([2]; 2 days)	Moisture content ([2]; initial state)
CCOc1cc(CN2CCOCC2)cc2[nH]c(=O)c3c(c12)NCCC3 [Example 1, 10-ethoxy-8-(morpholinomethyl)-1,2,3,4-tetrahydrobenzo[h][1,6]naphthyridine-5(6H)-on dichloride dihydrate]	constant data without change of the XRD diffraction pattern	constant	8.75%	8.80%	8.79%	8.77%	8.81%	8.77%	–	–	–	–	–	–	–	–	–
CCOc1cc(CN2CCOCC2)cc2[nH]c(=O)c3c(c12)NCCC3.Cl.Cl [Comparative Example 2, 10-ethoxy-8-(morpholinomethyl)-1,2,3,4-tetrahydrobenzo[h][1,6]naphthyridine-5(6H)-on dichloride]	crystallinity thereof is increased	–	–	–	–	–	–	–	5.2%	0.4%	–	–	–	–	–	–	–
CCOc1cc(CN2CCOCC2)cc2[nH]c(=O)c3c(c12)NCCC3 [Comparative Example 1, 10-ethoxy-8-(morpholinomethyl)-1,2,3,4-tetrahydrobenzo[h][1,6]naphthyridine-5(6H)-on dichloride anhydride]	–	–	–	–	–	–	–	–	–	–	increased within 30 minutes from the initial state	9.70%	10.18%	9.79%	9.72%	9.86%	0.40%

From patent publication US9522911B2, “Crystalline forms of tricyclic compound acid salt or hydrate thereof, and method for making thereof” (Jeil Pharmaceutical Co., Ltd., priority 2012, dated 2016)
